Laboratory results taken from patent US20200078360A1, “SMALL MOLECULE DUAL INHIBITORS OF EGFR/PI3K AND USES THEREOF” (The Regents of the University of Michigan, priority 2016, published 2020).

How the values were obtained:
[1] = test system: ERBB and PI3K family members; experiment: potency and selectivity against kinase family members (FIG. 1); type: biochemical
HCT-116 (KRASmt) tumors = experiment: single agent activity against HCT-116 tumors; type: in vivo; settings: FIG. 5
[2] = metabolic stability (FIG. 2); type: in vitro ADME
[3] = tolerability of daily oral dosing; type: in vivo; settings: daily oral dosing of 100 mg/kg, FIG. 6
Protocol: (§1) For the xenograft studies established from the patient-derived xenograft (PDX) models (UM CRC 14-929 and UM CRC 15-1269), female 6- to 7-week-old NCR nude mice (CrTac:NCr-Foxnlnu from Taconic) were implanted subcutaneously with low-passage PDX tumor fragments (30 mg) into the region of the right axilla. For the xenograft studies established from cell lines (CT-26), cells were injected (1×10^6 cells per injection) into the flanks of female 6- to 7-week old NCR nude mice. In both cases, the mice were randomized into treatment groups and treatments initiated when tumors reached 100 to 200 mg. […] Subcutaneous tumor volume and body weights were measured two to three times a week. Tumor volumes were calculated by measuring two perpendicular diameters with calipers and using the formula: tumor volume ¼ (length x width^2)/2. Percent treated/control (% TC) was calculated by dividing the median treated tumor weight by the median control tumor weight and multiplying by 100 on the last day of treatment. […] Increase in lifespan was calculated by dividing the median increase in lifespan (days) by the median survival time of the vehicle control group. […]

xenograft = experiment: in vivo efficacy in combination with MEK inhibitors (FIG. 22); set-up: species or system mice
Protocol: as §1

RKO (BRAFmt) tumors = experiment: single agent activity against RKO tumors; type: in vivo; settings: FIG. 5
[4] = test system: EGFR and PI3K pathway signaling; experiment: cellular EGFR and PI3K pathway signaling (Western blots); type: cell-based; settings: FIG. 4
Protocol: Cells or tumors were lysed in NP-40 lysis buffer [25 mmolL Tris-HCl (pH 7.6), 150 mmol/L NaCl, 1% Nonidet P-40, 10% glycerol, 1 mmol/L EDTA, 1 mmol/L dithiothreitol, and protease and phosphatase inhibitors], rocked for 30 minutes at 4° C., and centrifuged at 13,200 rpm for 20 minutes at 4° C. Protein concentration was determined by BioRad Protein Assays and lysates were subsequently subjected to SDS gel electrophoresis. Proteins were transferred to polyvinylidene fluoride (PVDF) membranes and probed with primary antibodies recognizing p-EGFR tyr1068), EGFR, p-HER2 (tyr1248), HER2, p-AKT (ser473), p-AKT (thr308), AKT, pERK1/2 (thr202/tyr204), ERK1/2, pS6K (ser235/236), S6K, and cleaved PARP (all from Cell Signaling Technology) and beta actin (Abcam). After incubation with anti-rabbit HRP-linked secondary antibody (Jackson ImmunoResearch Laboratories, Inc.), proteins were detected using chemiluminescence (GE Healthcare).

potency and selectivity against ERBB and PI3K family members [1]: potent and highly selective
metabolic stability [2]: favorable metabolic stability
SMILES: CS(=O)(=O)Nc1cc(-c2ccc3ncnc(Nc4ccc(F)c(Cl)c4)c3c2)cnc1Cl [MTX-211]
activity against HCT-116 (KRASmt) tumors (HCT-116 (KRASmt) tumors): single agent activity
tolerability [3]: well tolerated
in vivo efficacy when combined with MEK inhibitors (xenograft): in vivo potentiation of MTX-211 efficacy
activity against RKO (BRAFmt) tumors (RKO (BRAFmt) tumors): single agent activity
modulation of cellular EGFR and PI3K pathway signaling [4]: modulates cellular EGFR and PI3K pathway signaling
